Data published in the supplement of paper PMC11923942.

Experiments:
[1] = collision cross section (N2, base ion); higher = larger ion cross section
Procedure: (§1)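 Standards of hydrophobic organic contaminants were analysed by GC-APCI (positive mode, dry or wet source conditions) coupled to cyclic ion mobility-QTOF MS. CCS was measured for the base ion (sometimes a fragment ion) in N2 drift gas (one-pass mode, calibrated with a Waters 22-compound mix).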

[2] = GC retention time (DB-5MS, GC-APCI); higher = later elution
Procedure: as §1, with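 “mix). 5 mL/min).” for “mix).”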

SMILES | collision cross section [1] [Å²] | GC retention time [2] [min]
Clc1ccc(Cl)c(Cl)c1Cl [1,2,3,4-Tetrachlorobenzene] (APCI source condition: Dry, base ion: M+.) | 135.67 | 9.99
Brc1cc(Br)c(OCCOc2c(Br)cc(Br)cc2Br)c(Br)c1 [1,2-Bis(2,4,6-tribromophenoxy)ethane] (APCI source condition: Dry, base ion: M+.) | 186.57 | 29
C=CCOc1c(Br)cc(Br)cc1Br [1,3,5-Tribromo-2-prop-2-enoxybenzene] (APCI source condition: Dry, base ion: [M-Br]+) | 136.27 | 15.2
CCCCCCCCCCCCCCCCC(F)(F)C(F)(F)C(F)(F)C(F)(F)C(F)(F)C(F)(F)C(F)(F)C(F)(F)C(F)(F)C(F)(F)F [1-(Henicosafluorodecyl)hexadecane] (APCI source condition: Dry, base ion: [M-H]+) | 241.65 | 17.6
CCCCCCCCCCCCCCCCC(F)(F)C(F)(F)C(F)(F)C(F)(F)C(F)(F)C(F)(F)C(F)(F)C(F)(F)F [1-(Perfluoro-n-octyl)hexadecane] (APCI source condition: Dry, base ion: [M-H]+) | 226.94 | 16.8
CCCCCCCCCCCCCCC=CC(F)(F)C(F)(F)C(F)(F)C(F)(F)C(F)(F)C(F)(F)C(F)(F)C(F)(F)C(F)(F)C(F)(F)C(F)(F)C(F)(F)F [1-(Perfluorododecyl)-hexadec-1-ene] (APCI source condition: Dry, base ion: [M-H]+) | 255.25 | 18
CCCCCCCCCCCCCCCCC(F)(F)C(F)(F)C(F)(F)C(F)(F)C(F)(F)C(F)(F)C(F)(F)C(F)(F)C(F)(F)C(F)(F)C(F)(F)C(F)(F)F [1-(Perfluorododecyl)hexadecane] (APCI source condition: Dry, base ion: [M-H]+) | 256.66 | 18.4
CCCCCCCCCCCCCCC(F)(F)C(F)(F)C(F)(F)C(F)(F)C(F)(F)C(F)(F)C(F)(F)C(F)(F)C(F)(F)C(F)(F)C(F)(F)C(F)(F)F [1-(Perfluorododecyl)tetradecane] (APCI source condition: Dry, base ion: [M-H]+) | 250.16 | 16.7
Clc1ccc(C(c2ccccc2Cl)C(Cl)Cl)cc1 (centres undefined) [2,4'-DDD] (APCI source condition: Dry, base ion: [M-CHCl2]+) | 140.45 | 19.4
ClC(Cl)=C(c1ccc(Cl)cc1)c1ccccc1Cl [2,4'-DDE] (APCI source condition: Dry, base ion: M+.) | 154.54 | 18.7
Clc1ccc(C(c2ccccc2Cl)C(Cl)(Cl)Cl)cc1 (centres undefined) [2,4'-DDT] (APCI source condition: Dry, base ion: [M-CCl3]+) | 140.36 | 20.2
C=C(Br)COc1c(Br)cc(Br)cc1Br [2-Bromoallyl 2,4,6-tribromophenyl ether] (APCI source condition: Dry, base ion: [M-Br]+) | 143.35 | 18.2
CCCCC(CC)COP(=O)(Oc1ccccc1)Oc1ccccc1 (centres undefined) [2-Ethylhexyl diphenyl phosphate] (APCI source condition: Wet, base ion: [M-C8H15]+) | 149.25 | 21.3
CCCCC(CC)COC(=O)c1cc(Br)c(Br)c(Br)c1Br (centres undefined) [2-Ethylhexyl-2,3,4,5-tetrabromobenzoate] (APCI source condition: Dry, base ion: C7H3Br4O2+) | 141.48 | 24.2
Clc1ccc(C(c2ccc(Cl)cc2)C(Cl)Cl)cc1 [4,4'-DDD] (APCI source condition: Dry, base ion: [M-CHCl2]+) | 142.2 | 20.1
ClC(Cl)=C(c1ccc(Cl)cc1)c1ccc(Cl)cc1 [4,4'-DDE] (APCI source condition: Dry, base ion: M+.) | 159.06 | 19.3
Clc1ccc(C(c2ccc(Cl)cc2)C(Cl)(Cl)Cl)cc1 [4,4'-DDT] (APCI source condition: Dry, base ion: [M-CCl3]+) | 140.31 | 20.8
c1ccc2cc3ccccc3cc2c1 [Anthracene] (APCI source condition: Dry, base ion: M+.) | 138 | 15.7
c1ccc2cc3c(ccc4ccccc43)cc2c1 [Benzo(a)anthracene] (APCI source condition: Dry, base ion: M+.) | 140.47 | 21.8
c1ccc2c(c1)cc1ccc3cccc4ccc2c1c34 [Benzo(a)pyrene] (APCI source condition: Dry, base ion: M+.) | 143.28 | 24.8
c1ccc2c(c1)-c1cccc3c1c-2cc1ccccc13 [Benzo(b)fluoranthene] (APCI source condition: Dry, base ion: M+.) | 145.46 | 24.2
c1ccc2c(c1)ccc1ccc3ccccc3c12 [Benzo(c)phenanthrene] (APCI source condition: Dry, base ion: M+.) | 140.99 | 21.3
c1ccc2c(c1)c1cccc3ccc4cccc2c4c31 [Benzo(e)pyrene] (APCI source condition: Dry, base ion: M+.) | 142.88 | 24.7
c1cc2ccc3ccc4ccc5cccc6c(c1)c2c3c4c56 [Benzo(g,h,i)perylene] (APCI source condition: Dry, base ion: M+.) | 150.71 | 27.1
c1ccc2cc3c(cc2c1)-c1cccc2cccc-3c12 [Benzo(k)fluoranthene] (APCI source condition: Dry, base ion: M+.) | 145.45 | 24.2
CCCCC(CC)COC(=O)c1c(Br)c(Br)c(Br)c(Br)c1C(=O)OCC(CC)CCCC (centres undefined) [Bis(2-ethylhexyl) tetrabromophthalate] (APCI source condition: Dry, base ion: C8HBr4O3+) | 141.58 | 30.1
c1ccc2c(c1)ccc1c3ccccc3ccc21 [Chrysene] (APCI source condition: Dry, base ion: M+.) | 141.28 | 21.9
c1ccc2c(c1)ccc1cc3c(ccc4ccccc43)cc12 [Dibenzo(a,h)anthracene] (APCI source condition: Dry, base ion: M+.) | 154.91 | 27.2
c1ccc2c(c1)sc1ccccc12 [Dibenzothiophene] (APCI source condition: Dry, base ion: M+.) | 137.55 | 15.2
Clc1c(Cl)c(Cl)c(-c2c(Cl)c(Cl)c(Cl)c(Cl)c2Cl)c(Cl)c1Cl [PCB 209] (APCI source condition: Dry, base ion: M+.) | 179.93 | 
